In patent publication US10745352B2, “Dual function molecules for histone deacetylase inhibition and ataxia telangiectasia mutated activation and methods of use thereof” (Shuttle Pharmaceuticals, Inc., priority 2015, dated 2020):

System: pan-HDACs
Experiment: Pan-HDAC assay (Fluor-de-Lys fluorometric kit, HeLa Nuclear Extract)
Assay type: biochemical
Settings: values are average EC50, read-out: EC50 against pan-HDACs
Experimental: Certain compounds of the invention were tested in a pan-HDAC assay to determine the ability of such compounds to inhibit HDAC protein. Specifically, the compounds tested included: N-(6-(hydroxyamino)-6-oxohexyl)-3-methyl-1H-indole-2-carboxamide (SP-1-161) (FIG. 8A); N^1-hydroxy-N^6-(2-(2-methyl-1H-indol-3-yl)ethyl)octanediamide (SP-1-163) (FIG. 8A); (S)—N-(6-(hydroxyamino)-6-oxohexyl)-1-tosylindoline-2-carboxamide (SP-1-169) (FIG. 8B); and (S)-1-((5-(dimethylamino)naphthalene-1-yl)sulfonyl)-N-(6-(hydroxyamino)-6-oxoheyl)indoline-carboxamide (SP-1-171) (FIG. 8B).
The Pan HDAC assay was performed as follows:
Materials: Enzo Fluor-de-Lys HDAC fluorometric activity assay kit; 360 nm excitation 460 nm emission Plate Reader; Disposable pipettes; Pipet-aid; Pipette tips; Micro-pipetter; DMSO; Sterile micro-tubes and conical tubes; and Micro-centrifuge.
Test compounds and control preparation: All test compounds' stock solutions were made in 100% DMSO. Test compound dilutions were made in HDAC Assay buffer with a final concentration of DMSO less than or equal to 1%. Vehicle control was HDAC Assay buffer with 1% DMSO.
The reagents for the assay were prepared as follows:
1. All kit components were defrosted and these, and all dilutions described below, were kept on ice until use. All undiluted kit components are stable for several hours on ice.
2. A sufficient amount of HeLa Nuclear Extract (BML-KI140) or other HDAC source diluted in Assay Buffer (BML-KI143) was prepared to provide for the assays that were performed (# of wells×15 μl). A 30-fold dilution of the HeLa Extract means that 15 μl contains 0.5 μl of the undiluted Extract, an appropriate amount to use per well.
3. Dilution(s) of Trichostatin A and/or Test Inhibitors were prepared in Assay Buffer (BML-KI143). Since 10 μl were used per well, and since the final volume of the HDAC reaction was 50 μl, these inhibitor dilutions were 5× their final concentration.
4. Dilution(s) of the Fluor de Lys® Substrate (BML-KI104; 50 mM) were prepared in Assay Buffer (BML-KI143) that were 2× the desired final concentration(s). For inhibitor screening, substrate concentrations at or below the Km are recommended. Twenty-five μL were used per well. Initial dilutions of 25-fold or greater in Assay Buffer (2.0 mM or less) yielded stable solutions (see NOTE on freezing and thawing below). Rapid mixing and dilution into room temperature buffer helped to prevent precipitation at high substrate concentration. NOTE: Freezing/thawing of Fluor de Lys® Substrate solutions in Assay Buffer may cause precipitation of the Substrate. Dilute only amount necessary for one day's experiment.
5. Shortly before use (<30 min.), sufficient Fluor de Lys® Developer was prepared for the assays to be performed (50 μl per well). […]

SMILES: Cc1c(C(=O)NCCCCCC(=O)NO)[nH]c2ccccc12 [SP-1-161, N-(6-(hydroxyamino)-6-oxohexyl)-3-methyl-1H-indole-2-carboxamide]
- EC50: 29.7 nM
